From patent US20260207563A1, “UREA COMPOUNDS AS ACTIVATORS OF POTASSIUM CHANNELS KV7.2/7.3 USEFUL IN THE TREATMENT OF CNS AND PNS DISORDERS” (ANGELINI PHARMA S.P.A., priority 2022, published 2026)

Legend:
Format in all cases: cell-based
[1] = molecular target: T1, heteromeric KV7.3/KV7.5 channel (KCNQ3, KCNQ5) (Homo sapiens, UniProt O43525+Q9NR82); assay: Automated patch-clamp counter-screening against KV7.3/KV7.5 channel; conditions: HEK293 cells expressing Kv7.3/KV7.5; class by maximal shift in the Vhalf at 30 μM
T1 construct: host or cells: HEK293
Procedure, shortened: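 HEK293 cells with constitutive Kv7.3 and tetracycline-inducible Kv7.5 were recorded by automated patch clamp. Ten concentrations (1:3 series from 30 μM, quadruplicate) were tested; Vhalf shifts were fitted with a 4-parameter logistic to give EC50 and maximal Vhalf shift, with selectivity based on the shift at 30 μM.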

[2] = molecular target: T2, heteromeric KV7.2/KV7.3 channels (KCNQ2, KCNQ3) (Homo sapiens, UniProt O43525+O43526); assay: Automated patch-clamp (Sophion Qube 384) potency assay against KV7.2/KV7.3 channels; conditions: CHO-K1/Kv7.2/Kv7.3 cells; for EC50: EC50 from concentration-response of shift in Vhalf, 10 concentrations up to 30 μM, read-out: Kv7.2/7.3 EC50; for Kv7.2/7.3 ΔV1/2: maximal shift in the Vhalf from the top of the curve
T2 construct: expressed in transfected cells; host or cells: CHO-K1
Procedure, shortened: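 Whole-cell automated patch clamp on CHO-K1 cells stably expressing human KV7.2/KV7.3, held at −80 mV; I-V steps −100 to +20 mV (1 s) with 0 mV tail pulses, Boltzmann-fitted activation curves. Ten concentrations (1:3 from 30 μM, quadruplicate) versus 0.3% DMSO control; EC50 and maximal shift from 4-parameter fits of Vhalf shift.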

[3] = molecular target: T3, homomeric KV7.4 channel (KCNQ4) (Homo sapiens, UniProt P56696); assay: Automated patch-clamp (Qube) counter-screening assay against KV7.4 channel; conditions: CHO-K1 cells expressing KV7.4; class by maximal shift in the Vhalf at 30 μM
T3 construct: host or cells: CHO-K1
Procedure, shortened: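 CHO-K1 cells stably expressing homomeric human KV7.4 were recorded on the Qube automated patch clamp. Ten concentrations (1:3 dilutions from 30 μM) were tested in quadruplicate. The mean Vhalf shift was fitted with a 4-parameter logistic to give EC50 and maximal Vhalf shift, and selectivity was based on the shift at 30 μM.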

Row | Structure (SMILES) | Kv7.3/7.5 selectivity criteria [1] | EC50 [2] [nM] | Kv7.2/7.3 ΔV1/2 [2] [mV] | Kv7.4 selectivity criteria [3]
1 | COCC1(NC(=O)NCc2ccnc(OCC(F)(F)F)c2)Cc2ccccc2C1 [Compound 148] | A (Selective compounds showed Kv7.4 and/or Kv7.3/7.5 ΔV1/2 equal to or lower than 15 mV (letter A in table 3)) | 1820 | 15.43 | A (Selective compounds showed Kv7.4 and/or Kv7.3/7.5 ΔV1/2 equal to or lower than 15 mV (letter A in table 3))
2 | O=C(NCc1ccnc(OCC(F)(F)F)c1)NC1CSc2ccccc2C1 (stereo not shown) [Compound 149] | A (Selective compounds showed Kv7.4 and/or Kv7.3/7.5 ΔV1/2 equal to or lower than 15 mV (letter A in table 3)) | 618 | 30.8 | A (Selective compounds showed Kv7.4 and/or Kv7.3/7.5 ΔV1/2 equal to or lower than 15 mV (letter A in table 3))
3 | O=C(NCc1ccnc(OCC(F)(F)F)c1)N[C@@H]1CCCOc2ccccc21 [Compound 150] | A (Selective compounds showed Kv7.4 and/or Kv7.3/7.5 ΔV1/2 equal to or lower than 15 mV (letter A in table 3)) | 1310 | 30.15 | B (Non-selective compounds showed Kv7.4 and/or Kv7.3/7.5 ΔV1/2 higher than 15 mV (letter B in table 3))
4 | O=C(NCc1ccnc(OCC(F)(F)F)c1)N[C@H]1c2ccccc2C[C@H]1CO [Compound 151] | A (Selective compounds showed Kv7.4 and/or Kv7.3/7.5 ΔV1/2 equal to or lower than 15 mV (letter A in table 3)) | 11200 | 23.51 | A (Selective compounds showed Kv7.4 and/or Kv7.3/7.5 ΔV1/2 equal to or lower than 15 mV (letter A in table 3))
5 | O=C(NCc1ccnc(OCC(F)(F)F)c1)NC1CCSc2ccccc21 (stereo not shown) [Compound 152] | B (Non-selective compounds showed Kv7.4 and/or Kv7.3/7.5 ΔV1/2 higher than 15 mV (letter B in table 3)) | 1350 | 36.08 | B (Non-selective compounds showed Kv7.4 and/or Kv7.3/7.5 ΔV1/2 higher than 15 mV (letter B in table 3))
6 | O=C(NCc1ccnc(OC(F)F)c1)N[C@@H]1CCc2ccc(F)cc21 [Compound 153] | B (Non-selective compounds showed Kv7.4 and/or Kv7.3/7.5 ΔV1/2 higher than 15 mV (letter B in table 3)) | 1600 | 47.43 | B (Non-selective compounds showed Kv7.4 and/or Kv7.3/7.5 ΔV1/2 higher than 15 mV (letter B in table 3))
7 | O=C(NCc1ccnc(OCC(F)(F)F)c1)Nc1cccc2c1CCC2 [Compound 154] | A (Selective compounds showed Kv7.4 and/or Kv7.3/7.5 ΔV1/2 equal to or lower than 15 mV (letter A in table 3)) | 617 | 24.51 | A (Selective compounds showed Kv7.4 and/or Kv7.3/7.5 ΔV1/2 equal to or lower than 15 mV (letter A in table 3))
8 | O=C(NCc1ccnc(OCC(F)(F)F)c1)N[C@H]1c2ccccc2C[C@H]1O [Compound 155] | B (Non-selective compounds showed Kv7.4 and/or Kv7.3/7.5 ΔV1/2 higher than 15 mV (letter B in table 3)) | 9460 | 30.26 | B (Non-selective compounds showed Kv7.4 and/or Kv7.3/7.5 ΔV1/2 higher than 15 mV (letter B in table 3))
9 | O=C(NCc1ccnc(OCC(F)(F)F)c1)N[C@@H]1CCCc2ccccc21 [Compound 156] | B (Non-selective compounds showed Kv7.4 and/or Kv7.3/7.5 ΔV1/2 higher than 15 mV (letter B in table 3)) | 1850 | 55.46 | B (Non-selective compounds showed Kv7.4 and/or Kv7.3/7.5 ΔV1/2 higher than 15 mV (letter B in table 3))
10 | O=C(NCc1ccnc(OCC(F)(F)F)c1)NCC1CCc2ccccc21 (stereo not shown) [Compound 157] | A (Selective compounds showed Kv7.4 and/or Kv7.3/7.5 ΔV1/2 equal to or lower than 15 mV (letter A in table 3)) | 4010 | 18.8 | A (Selective compounds showed Kv7.4 and/or Kv7.3/7.5 ΔV1/2 equal to or lower than 15 mV (letter A in table 3))
